Source: article PMC8500670, “A selective WDR5 degrader inhibits acute myeloid leukemia in patient-derived mouse models” (Science translational medicine, 2021)

Experiments:
Experiment in all cases: biochemical
EZH2 Complex = EZH2 Complex (Homo sapiens, UniProt Q15910); set-up: complex; protein methyltransferase inhibition panel, single concentration, duplicate
Experimental: (§1) We next assessed selectivity of MS67 against 22 protein methyltransferases (table S2) and a broad panel of common drug targets including 45 kinases (table S3) and 44 G protein–coupled receptors (GPCR), ion channels, and transporters (table S4). […] We subsequently determined that MS67 had moderate binding affinity (Ki = 1.0 ± 0.8 μM) to Sigma 2 receptor (fig. S10).

PRMT5/MEP50 Complex = PRMT5/MEP50 Complex (Homo sapiens, UniProt O14744); set-up: complex; protein methyltransferase inhibition panel, single concentration, duplicate
Experimental: as §1

EZH1 Complex = EZH1 Complex (Homo sapiens, UniProt Q92800); set-up: complex; protein methyltransferase inhibition panel, single concentration, duplicate
Experimental: as §1

PRMT7 = molecular target: T1, PRMT7 (Homo sapiens, UniProt Q9NVM4); set-up: protein methyltransferase inhibition panel, single concentration, duplicate
T1 sequence (Q9NVM4 1-692): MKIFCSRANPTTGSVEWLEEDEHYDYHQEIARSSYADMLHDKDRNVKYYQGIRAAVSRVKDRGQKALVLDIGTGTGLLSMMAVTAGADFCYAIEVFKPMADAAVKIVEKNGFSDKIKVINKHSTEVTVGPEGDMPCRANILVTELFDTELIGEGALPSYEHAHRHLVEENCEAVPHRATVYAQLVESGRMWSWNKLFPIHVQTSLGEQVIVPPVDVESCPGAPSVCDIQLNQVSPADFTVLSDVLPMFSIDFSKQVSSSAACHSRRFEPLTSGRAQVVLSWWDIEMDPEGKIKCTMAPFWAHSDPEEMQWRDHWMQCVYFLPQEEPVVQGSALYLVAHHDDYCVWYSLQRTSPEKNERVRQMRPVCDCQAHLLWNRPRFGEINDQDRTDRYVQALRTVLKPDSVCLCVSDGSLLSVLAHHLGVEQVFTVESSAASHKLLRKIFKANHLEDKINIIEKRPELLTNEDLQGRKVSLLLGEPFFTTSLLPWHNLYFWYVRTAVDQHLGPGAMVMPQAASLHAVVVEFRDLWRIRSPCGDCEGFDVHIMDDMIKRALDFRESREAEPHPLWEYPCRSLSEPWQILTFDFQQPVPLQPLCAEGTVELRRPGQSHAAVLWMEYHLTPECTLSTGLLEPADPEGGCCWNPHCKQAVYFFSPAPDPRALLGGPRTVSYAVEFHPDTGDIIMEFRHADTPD
Experimental: as §1

SMYD3 = molecular target: T2, SMYD3 (Homo sapiens, UniProt Q9H7B4); set-up: protein methyltransferase inhibition panel, single concentration, duplicate
T2 sequence (Q9H7B4 1-428): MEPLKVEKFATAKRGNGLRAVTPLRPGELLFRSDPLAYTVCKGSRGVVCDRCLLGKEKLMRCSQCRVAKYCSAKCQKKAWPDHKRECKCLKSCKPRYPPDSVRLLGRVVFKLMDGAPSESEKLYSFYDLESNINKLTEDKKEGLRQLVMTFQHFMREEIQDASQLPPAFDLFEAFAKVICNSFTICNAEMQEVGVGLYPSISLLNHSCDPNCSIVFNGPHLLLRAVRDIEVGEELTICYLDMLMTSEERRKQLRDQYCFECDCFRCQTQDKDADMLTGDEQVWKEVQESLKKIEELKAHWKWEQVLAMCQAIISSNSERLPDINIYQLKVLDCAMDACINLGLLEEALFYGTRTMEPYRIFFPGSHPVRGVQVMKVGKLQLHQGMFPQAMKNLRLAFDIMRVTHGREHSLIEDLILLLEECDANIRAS
Experimental: as §1

DOT1L = DOT1L (Homo sapiens, UniProt Q8TEK3); set-up: protein methyltransferase inhibition panel, single concentration, duplicate
DOT1L, sequence (Q8TEK3 whole entry): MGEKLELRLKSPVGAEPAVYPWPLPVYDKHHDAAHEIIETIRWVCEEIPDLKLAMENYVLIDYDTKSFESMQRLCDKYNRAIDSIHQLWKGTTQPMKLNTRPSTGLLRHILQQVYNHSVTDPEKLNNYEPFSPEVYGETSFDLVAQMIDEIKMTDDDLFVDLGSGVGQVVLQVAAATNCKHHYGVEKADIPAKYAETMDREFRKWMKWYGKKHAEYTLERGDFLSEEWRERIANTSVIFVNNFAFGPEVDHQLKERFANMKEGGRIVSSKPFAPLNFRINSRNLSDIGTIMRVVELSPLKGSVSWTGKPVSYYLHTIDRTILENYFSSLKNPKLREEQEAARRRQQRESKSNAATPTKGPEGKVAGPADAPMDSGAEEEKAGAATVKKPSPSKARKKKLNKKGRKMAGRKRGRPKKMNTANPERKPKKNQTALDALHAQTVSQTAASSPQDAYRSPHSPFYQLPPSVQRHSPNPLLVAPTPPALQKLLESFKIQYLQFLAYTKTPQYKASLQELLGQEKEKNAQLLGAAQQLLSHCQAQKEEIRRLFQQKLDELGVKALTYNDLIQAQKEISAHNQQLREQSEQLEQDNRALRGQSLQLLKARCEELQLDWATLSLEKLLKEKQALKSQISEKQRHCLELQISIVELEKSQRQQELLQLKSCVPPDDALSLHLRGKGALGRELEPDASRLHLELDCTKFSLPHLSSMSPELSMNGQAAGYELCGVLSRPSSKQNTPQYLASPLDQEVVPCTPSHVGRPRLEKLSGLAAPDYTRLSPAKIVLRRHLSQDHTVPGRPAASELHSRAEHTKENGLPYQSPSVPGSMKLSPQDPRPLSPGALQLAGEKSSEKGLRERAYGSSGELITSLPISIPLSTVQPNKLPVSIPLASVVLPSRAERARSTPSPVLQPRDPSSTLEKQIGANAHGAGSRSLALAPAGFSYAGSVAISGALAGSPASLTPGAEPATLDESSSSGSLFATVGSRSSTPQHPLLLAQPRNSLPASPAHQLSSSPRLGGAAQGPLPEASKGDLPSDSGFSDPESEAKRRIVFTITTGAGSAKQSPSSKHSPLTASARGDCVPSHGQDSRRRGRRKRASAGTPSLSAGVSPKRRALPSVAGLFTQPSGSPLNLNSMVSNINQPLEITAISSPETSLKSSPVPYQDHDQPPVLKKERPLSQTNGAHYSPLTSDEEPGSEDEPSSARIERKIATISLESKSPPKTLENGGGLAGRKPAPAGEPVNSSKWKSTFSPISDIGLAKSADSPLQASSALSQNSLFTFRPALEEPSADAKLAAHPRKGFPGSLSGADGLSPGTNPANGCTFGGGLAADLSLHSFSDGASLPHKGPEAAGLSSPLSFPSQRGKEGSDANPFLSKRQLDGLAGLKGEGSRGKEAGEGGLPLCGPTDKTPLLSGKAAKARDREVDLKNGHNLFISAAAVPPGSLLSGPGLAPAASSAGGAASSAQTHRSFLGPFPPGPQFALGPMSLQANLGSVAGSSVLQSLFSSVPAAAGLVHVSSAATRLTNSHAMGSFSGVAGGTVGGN
Experimental: as §1

PRMT1 = PRMT1 (Homo sapiens, UniProt Q99873); set-up: protein methyltransferase inhibition panel, single concentration, duplicate
PRMT1, sequence (Q99873 whole entry): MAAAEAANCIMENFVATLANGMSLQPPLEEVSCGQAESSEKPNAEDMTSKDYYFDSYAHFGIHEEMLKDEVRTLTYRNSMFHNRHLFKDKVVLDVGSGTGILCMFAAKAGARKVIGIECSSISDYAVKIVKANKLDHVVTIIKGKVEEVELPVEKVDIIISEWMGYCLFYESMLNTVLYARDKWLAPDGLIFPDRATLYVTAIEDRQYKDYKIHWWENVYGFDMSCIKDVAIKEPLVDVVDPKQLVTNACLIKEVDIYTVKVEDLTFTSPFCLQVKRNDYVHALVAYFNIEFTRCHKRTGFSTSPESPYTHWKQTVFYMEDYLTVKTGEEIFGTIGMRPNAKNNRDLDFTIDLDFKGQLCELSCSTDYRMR
Experimental: as §1

Measured: inhibition at 10 µM

EZH2 Complex, sequence (Q15910 whole entry): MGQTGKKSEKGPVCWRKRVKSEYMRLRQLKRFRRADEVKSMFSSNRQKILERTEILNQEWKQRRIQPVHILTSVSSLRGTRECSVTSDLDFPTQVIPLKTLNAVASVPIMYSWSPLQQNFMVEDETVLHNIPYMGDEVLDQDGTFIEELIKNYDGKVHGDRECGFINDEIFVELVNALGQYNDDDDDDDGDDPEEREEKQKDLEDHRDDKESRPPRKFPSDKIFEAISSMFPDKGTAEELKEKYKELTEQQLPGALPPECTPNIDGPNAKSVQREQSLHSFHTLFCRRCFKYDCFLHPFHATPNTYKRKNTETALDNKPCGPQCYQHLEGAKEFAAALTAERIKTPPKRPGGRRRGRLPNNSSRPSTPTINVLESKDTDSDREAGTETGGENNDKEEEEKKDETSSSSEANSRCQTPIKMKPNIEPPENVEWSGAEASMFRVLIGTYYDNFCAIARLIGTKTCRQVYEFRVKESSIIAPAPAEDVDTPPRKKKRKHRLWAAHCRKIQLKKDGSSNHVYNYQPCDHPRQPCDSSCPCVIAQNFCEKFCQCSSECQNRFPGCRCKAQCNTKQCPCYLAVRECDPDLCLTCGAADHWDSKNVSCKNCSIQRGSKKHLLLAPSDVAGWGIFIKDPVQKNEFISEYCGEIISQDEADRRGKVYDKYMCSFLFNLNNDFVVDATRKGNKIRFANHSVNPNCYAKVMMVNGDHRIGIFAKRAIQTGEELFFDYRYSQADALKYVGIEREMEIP
EZH2 Complex, sequence (O75530 whole entry partner): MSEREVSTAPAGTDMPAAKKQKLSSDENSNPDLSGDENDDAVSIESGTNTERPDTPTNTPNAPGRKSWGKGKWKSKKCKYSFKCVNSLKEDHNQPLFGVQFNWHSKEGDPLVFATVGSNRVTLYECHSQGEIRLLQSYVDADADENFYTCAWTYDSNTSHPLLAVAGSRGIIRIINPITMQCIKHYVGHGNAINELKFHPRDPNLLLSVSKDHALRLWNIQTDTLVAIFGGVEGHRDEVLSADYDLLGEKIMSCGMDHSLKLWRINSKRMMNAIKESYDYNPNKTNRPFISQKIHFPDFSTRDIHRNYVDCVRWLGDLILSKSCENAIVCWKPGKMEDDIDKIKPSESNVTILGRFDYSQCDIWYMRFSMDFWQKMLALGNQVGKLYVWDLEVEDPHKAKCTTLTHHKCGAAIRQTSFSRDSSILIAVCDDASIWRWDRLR
EZH2 Complex, sequence (Q09028 whole entry partner): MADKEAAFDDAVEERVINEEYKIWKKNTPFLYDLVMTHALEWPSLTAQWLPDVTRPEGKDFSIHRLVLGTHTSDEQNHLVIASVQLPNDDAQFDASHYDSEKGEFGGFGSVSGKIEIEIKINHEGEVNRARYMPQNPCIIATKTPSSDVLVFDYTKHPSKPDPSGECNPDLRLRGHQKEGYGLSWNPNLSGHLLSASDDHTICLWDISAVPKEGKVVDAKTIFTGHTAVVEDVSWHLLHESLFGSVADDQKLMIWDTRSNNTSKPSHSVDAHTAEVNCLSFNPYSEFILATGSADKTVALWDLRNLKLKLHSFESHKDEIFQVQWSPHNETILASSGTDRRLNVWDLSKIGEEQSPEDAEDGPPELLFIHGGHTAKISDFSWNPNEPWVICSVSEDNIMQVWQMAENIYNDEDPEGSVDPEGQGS
EZH2 Complex, sequence (Q15022 whole entry partner): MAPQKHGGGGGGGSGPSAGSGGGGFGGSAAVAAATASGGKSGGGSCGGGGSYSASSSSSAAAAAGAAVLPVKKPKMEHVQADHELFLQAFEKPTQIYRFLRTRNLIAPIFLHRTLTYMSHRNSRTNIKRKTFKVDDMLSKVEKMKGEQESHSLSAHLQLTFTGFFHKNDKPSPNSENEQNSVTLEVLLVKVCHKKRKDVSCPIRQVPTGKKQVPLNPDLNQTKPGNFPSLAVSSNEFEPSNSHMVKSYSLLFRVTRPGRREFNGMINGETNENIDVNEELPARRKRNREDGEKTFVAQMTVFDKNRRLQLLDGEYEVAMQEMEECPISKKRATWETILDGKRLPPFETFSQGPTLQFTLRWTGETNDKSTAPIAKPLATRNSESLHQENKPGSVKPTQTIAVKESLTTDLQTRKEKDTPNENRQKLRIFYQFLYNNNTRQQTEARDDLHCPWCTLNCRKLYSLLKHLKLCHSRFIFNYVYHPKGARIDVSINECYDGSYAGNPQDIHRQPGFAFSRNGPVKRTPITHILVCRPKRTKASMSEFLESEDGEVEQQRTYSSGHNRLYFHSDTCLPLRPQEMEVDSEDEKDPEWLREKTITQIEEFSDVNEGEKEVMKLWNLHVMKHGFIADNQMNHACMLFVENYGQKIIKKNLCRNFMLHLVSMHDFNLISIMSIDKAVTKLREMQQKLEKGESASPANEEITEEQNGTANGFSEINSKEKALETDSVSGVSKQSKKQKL
EZH2 Complex, sequence (Q6ZN18 whole entry partner): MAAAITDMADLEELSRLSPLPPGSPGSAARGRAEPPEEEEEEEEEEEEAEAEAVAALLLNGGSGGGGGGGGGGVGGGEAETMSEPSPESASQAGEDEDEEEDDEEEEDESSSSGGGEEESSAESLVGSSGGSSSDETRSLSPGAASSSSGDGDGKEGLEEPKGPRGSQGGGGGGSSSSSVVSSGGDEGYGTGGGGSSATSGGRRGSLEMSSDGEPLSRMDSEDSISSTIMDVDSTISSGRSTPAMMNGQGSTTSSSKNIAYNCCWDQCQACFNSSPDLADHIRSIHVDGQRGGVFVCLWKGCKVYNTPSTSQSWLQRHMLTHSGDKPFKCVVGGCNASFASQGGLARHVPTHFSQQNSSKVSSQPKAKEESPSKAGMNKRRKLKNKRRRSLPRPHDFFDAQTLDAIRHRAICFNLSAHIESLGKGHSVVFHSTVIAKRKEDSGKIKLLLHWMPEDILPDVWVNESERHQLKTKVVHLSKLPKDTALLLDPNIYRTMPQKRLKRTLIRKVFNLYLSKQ

Cc1ncsc1-c1ccc([C@H](C)NC(=O)[C@@H]2C[C@@H](O)CN2C(=O)[C@@H](NC(=O)CNC(=O)c2ccc(F)c(-c3ccc(N4C[C@@H](C)N(C)[C@@H](C)C4)c(NC(=O)c4c[nH]c(=O)cc4C(F)(F)F)c3)c2)C(C)(C)C)cc1 [MS67]
< 10%: EZH2 Complex | PRMT5/MEP50 Complex | EZH1 Complex | PRMT7 | SMYD3 | DOT1L | PRMT1
